Laboratory results: patent publication US20190330224A1, “ACC INHIBITORS AND USES THEREOF” (Gilead Apollo, LLC, priority 2015, published 2019)
≈ marks a conversion by molar mass, not a printed value. Like-named read-outs stand apart in the source and are kept apart here.

Legend:
Aspergillus fumigatus = assay: In vitro antifungal assay (broth microdilution, Micromyx), A. fumigatus; assay type: cell-based; conditions: 48 hr
Method: (§1) Compounds of the present invention were also assayed in an in vitro antifungal assay against Candida glabrata, Candida tropicalis, and Aspergillus fumigatus, performed by Micromyx, a representative procedure of which follows. The test organisms were reference strains acquired from the American Type Culture Collection (ATCC). Upon receipt, the isolates were streaked onto Sabouraud Dextrose Agar (SDA). Colonies were harvested from these plates and a cell suspension was prepared in Sabouraud Dextrose Broth (Becton Dickinson, Sparks, Md.) containing cryoprotectant. Aliquots were then frozen at −80° C. Prior to the assay, the frozen seeds of all yeast isolates to be tested in that session were thawed and streaked for isolation onto SDA and incubated overnight at 35° C. All fungal isolates were previously streaked on SDA and incubated at 35° C. until spore formation occurred, followed by harvesting of the spores in sterile 0.85% saline and enumeration. The spore preps were stored at 4° C. Yeast and fungal isolates were tested in RPMI medium (Catalog No. SH30011.04; Lot No. AYB60287A; HyClone Labs, Logan, Utah) buffered with 0.165 M MOPS (Catalog No. 475898; Lot No. D00165859; CalBiochem, La Jolla, Calif.). The pH of the medium was adjusted to 7.0 with 1 N NaOH, sterile filtered using a 0.2 μm PES filter, and stored at 4° C. until used. All of the above media was prepared and stored according to guidelines from the Clinical and Laboratory Standards Institute (CLSI; 2-4). The broth microdilution assay method essentially followed the procedure described by CLSI (2-4) and employed automated liquid handlers to conduct serial dilutions and liquid transfers. Automated liquid handlers included the Multidrop 384 (Labsystems, Helsinki, Finland) and Biomek 2000 (Beckman Coulter, Fullerton Calif. The wells in columns 2-12 in standard 96-well microdilution plates (Costar 3795) were filled with 150 μl of the correct diluent. These would become the ‘mother plates’ from which ‘daughter’ or test plates would be prepared. The drugs (300 μL at 40× the desired top concentration in the test plates) were dispensed into the appropriate well in Column 1 of the mother plates. The Biomek 2000 was used to make serial two-fold dilutions through Column 11 in the “mother plate”. The wells of Column 12 contained no drug and were the organism growth control wells. The daughter plates were loaded with 185 μL per well of the appropriate test media using the Multidrop 384. The daughter plates were prepared using the Biomek FX which transferred 5 μL of drug solution from each well of a mother plate to the corresponding well of the correct daughter plate in a single step. A standardized inoculum of each organism was prepared per CLSI methods (2-4). For yeast isolates, colonies were picked from the primary plate and a suspension was prepared to equal a 0.5 McFarland turbidity standard. Suspensions were then diluted 1:100 in RPMI 1640 medium, resulting in a final inoculum concentration of 0.5-2.5×10^3 CFU/mL per test well. […] Standardized inoculum suspensions were transferred to compartments of sterile reservoirs divided by length (Beckman Coulter), and the Biomek 2000 was used to inoculate all plates. Daughter plates were placed on the Biomek 2000 in reverse orientation so that plates were inoculated from low to high drug concentration. The Biomek 2000 delivered 10 μL of standardized inoculum into each well of the appropriate daughter plate for an additional 1:20 dilution. Thus, the wells of the daughter plates ultimately contained 185 μL of the appropriate media, 5 μL of drug solution, and 10 μL of inoculum. The final concentration of DMSO (if used as a solvent) in the test well was 2.5%. Plates were stacked 3 high, covered with a lid on the top plate, placed into plastic bags, and incubated at 35° C. for approximately 24-48 hr for all yeast isolates, and 48 hr for all fungal isolates. Plates were viewed from the bottom using a plate viewer. […]

Human ACC2 = Human ACC2 (Homo sapiens, UniProt O00763); assay: In vitro ACC2 inhibition assay (ADP-Glo), human ACC2; assay type: biochemical; conditions: 5 nM ACC2, 20 μM ATP, 20 μM acetyl-CoA
Chain of Human ACC2 (O00763 whole entry): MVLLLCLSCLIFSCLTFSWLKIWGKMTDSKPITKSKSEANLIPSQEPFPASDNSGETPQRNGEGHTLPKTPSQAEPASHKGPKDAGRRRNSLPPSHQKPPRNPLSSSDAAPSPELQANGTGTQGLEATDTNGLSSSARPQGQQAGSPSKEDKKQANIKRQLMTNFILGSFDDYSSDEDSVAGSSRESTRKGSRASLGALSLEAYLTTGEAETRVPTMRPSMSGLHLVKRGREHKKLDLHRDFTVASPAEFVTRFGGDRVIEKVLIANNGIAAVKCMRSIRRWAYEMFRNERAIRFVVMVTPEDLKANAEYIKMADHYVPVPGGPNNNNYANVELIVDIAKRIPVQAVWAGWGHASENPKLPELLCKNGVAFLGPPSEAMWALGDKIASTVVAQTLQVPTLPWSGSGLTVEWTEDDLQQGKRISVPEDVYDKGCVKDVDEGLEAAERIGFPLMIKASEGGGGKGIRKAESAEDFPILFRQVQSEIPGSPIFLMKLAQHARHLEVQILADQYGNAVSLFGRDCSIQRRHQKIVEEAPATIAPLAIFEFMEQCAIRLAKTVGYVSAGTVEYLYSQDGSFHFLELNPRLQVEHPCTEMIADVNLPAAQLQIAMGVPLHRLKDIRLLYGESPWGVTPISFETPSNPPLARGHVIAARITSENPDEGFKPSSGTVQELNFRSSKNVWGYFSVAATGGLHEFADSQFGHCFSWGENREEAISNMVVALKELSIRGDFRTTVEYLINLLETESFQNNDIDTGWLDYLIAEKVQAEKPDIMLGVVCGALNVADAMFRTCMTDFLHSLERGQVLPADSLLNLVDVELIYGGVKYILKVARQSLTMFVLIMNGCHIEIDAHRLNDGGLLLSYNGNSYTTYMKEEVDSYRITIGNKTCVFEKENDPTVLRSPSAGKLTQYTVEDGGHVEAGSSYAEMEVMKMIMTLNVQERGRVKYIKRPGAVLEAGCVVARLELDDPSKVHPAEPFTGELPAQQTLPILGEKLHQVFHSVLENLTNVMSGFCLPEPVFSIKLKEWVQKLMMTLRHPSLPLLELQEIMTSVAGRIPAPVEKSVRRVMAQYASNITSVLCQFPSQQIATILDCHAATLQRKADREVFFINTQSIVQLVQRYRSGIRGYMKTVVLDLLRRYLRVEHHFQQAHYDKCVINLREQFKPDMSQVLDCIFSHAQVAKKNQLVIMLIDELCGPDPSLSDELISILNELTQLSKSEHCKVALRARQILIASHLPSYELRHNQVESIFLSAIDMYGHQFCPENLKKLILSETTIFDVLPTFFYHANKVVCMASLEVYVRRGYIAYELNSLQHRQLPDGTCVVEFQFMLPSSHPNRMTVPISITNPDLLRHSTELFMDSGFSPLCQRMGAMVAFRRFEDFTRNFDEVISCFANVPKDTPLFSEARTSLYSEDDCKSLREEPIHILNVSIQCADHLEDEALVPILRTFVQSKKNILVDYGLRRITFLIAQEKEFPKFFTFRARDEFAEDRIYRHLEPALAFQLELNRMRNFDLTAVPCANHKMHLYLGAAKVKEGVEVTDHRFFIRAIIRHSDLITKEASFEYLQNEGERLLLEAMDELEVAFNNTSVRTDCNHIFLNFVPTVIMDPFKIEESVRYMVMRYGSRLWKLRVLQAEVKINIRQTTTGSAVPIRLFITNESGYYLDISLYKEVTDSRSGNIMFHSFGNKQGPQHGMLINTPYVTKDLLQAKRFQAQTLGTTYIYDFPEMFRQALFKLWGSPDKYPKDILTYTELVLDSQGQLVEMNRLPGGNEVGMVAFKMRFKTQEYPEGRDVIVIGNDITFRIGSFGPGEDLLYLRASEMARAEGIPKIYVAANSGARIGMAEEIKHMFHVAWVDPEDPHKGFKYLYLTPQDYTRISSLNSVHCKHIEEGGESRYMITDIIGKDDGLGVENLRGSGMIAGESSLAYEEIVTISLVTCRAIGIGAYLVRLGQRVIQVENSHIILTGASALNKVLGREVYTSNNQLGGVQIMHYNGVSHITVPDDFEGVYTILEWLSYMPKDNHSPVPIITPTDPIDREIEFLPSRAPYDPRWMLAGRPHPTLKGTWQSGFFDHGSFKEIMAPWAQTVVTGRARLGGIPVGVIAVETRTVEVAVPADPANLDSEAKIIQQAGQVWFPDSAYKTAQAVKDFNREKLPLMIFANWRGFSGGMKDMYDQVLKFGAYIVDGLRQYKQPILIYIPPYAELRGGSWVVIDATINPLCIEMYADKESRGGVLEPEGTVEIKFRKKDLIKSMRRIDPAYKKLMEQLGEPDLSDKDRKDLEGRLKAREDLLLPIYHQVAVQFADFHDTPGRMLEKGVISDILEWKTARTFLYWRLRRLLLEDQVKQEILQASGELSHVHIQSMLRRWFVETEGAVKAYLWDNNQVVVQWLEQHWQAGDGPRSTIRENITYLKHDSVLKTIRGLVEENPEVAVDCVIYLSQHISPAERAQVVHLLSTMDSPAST

Candida tropicalis = assay: In vitro antifungal assay (broth microdilution, Micromyx), C. tropicalis; assay type: cell-based; conditions: ATCC90874, strain 0636 ATCC 90874, 35° C., approximately 24-48 hr
Method: as §1

Candida glabrata = assay: In vitro antifungal assay (broth microdilution, Micromyx), C. glabrata; assay type: cell-based; conditions: Nakaseomyces glabratus, ATCC90030, strain 0635 ATCC 90030, 35° C., approximately 24-48 hr
Method: as §1

C. albicans ATCC 90028 = assay: Anti-Fungal Activity Assay (broth microtiter MIC), C. albicans; assay type: cell-based, Candida albicans; conditions: Candida albicans, ATCC90028, 48 h, 3 replicates; MIC recorded at 48 h; read-out: MIC C. albicans ATCC 90028
Outline: (§2)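 Plate from frozen stock onto Sabouraud dextrose agar, 35° C overnight; swab colonies into RPMI 1640+MOPS; set density via standard curves; run CLSI M27-A3 broth microdilution; score MIC visually versus growth control at 48 h, soraphen additionally at 24 h.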

[1] = test system: C. parapsilosis ATCC 22019; assay: Anti-Fungal Activity Assay (broth microtiter MIC), C. parapsilosis; assay type: cell-based, Candida parapsilosis; conditions: Lodderomyces parapsilosis, ATCC22019, 48 h, 3 replicates; MIC recorded at 48 h; read-out: MIC C. parapsilosis ATCC 22019
Outline: as §2

C. krusei ATCC 6258 = assay: Anti-Fungal Activity Assay (broth microtiter MIC), C. krusei; assay type: cell-based, Candida krusei; conditions: Pichia kudriavzevii, ATCC6258, 48 h, 3 replicates; MIC recorded at 48 h; read-out: MIC C. krusei ATCC 6258
Outline: as §2

[2] = test system: Fusarium virguliforme (Fv); assay: Growth inhibition assay of fungal pathogens, Fv; assay type: cell-based; conditions: 48 hours, read-out: Concentration at 90% Inhibition, Fv
Outline: (§3)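 Spores in 17% V8 medium exposed to compound at final 50, 10, 2 ppm or 2, 0.4, 0.08 ppm, with 2% DMSO. OD600 and visual ratings taken at 24 and 48 h, with blank subtracted. Percent growth inhibition derived from 48 h readings relative to 2% DMSO control.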

Septoria tritici (St) = assay: Growth inhibition assay of fungal pathogens, St; assay type: cell-based; conditions: Zymoseptoria tritici; 48 hours; read-out: Concentration at 90% Inhibition, St
Outline: as §3

[3] = test system: Blumeria graminis f sp. hordei; assay: Foliar protection test, barley powdery mildew control; assay type: in vivo, Blumeria graminis f sp. hordei on Hordeum vulgare cv. Perry; conditions: 168 h, compound concentration 50 ppm, foliar spray, evaluated 7 days after inoculation, read-out: Barley Powdery Mildew Control at 50 ppm
Outline: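 Barley cv. Perry at first true leaf (6 days) sprayed to wetness on both leaf sides with compound in 5% acetone/0.005% Tween 80, typically at 200, 100, 50, 10 or 2 ppm. Inoculated 24 h later by shaking spores from colonized plants; kept at 20-22 °C, 70% RH. Mildew colonization scored 7 days later as percent control.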

[4] = test system: Phytophthora capsici (Pc); assay: Growth inhibition assay of fungal pathogens, Pc; assay type: cell-based; conditions: 48 hours, read-out: Concentration at 90% Inhibition, Pc
Outline: as §3

Fungal ACC2 = Fungal ACC2 (UniProt Q00955); conditions: read-out: Fungal ACC2 (IC50, in vitro ACC2 inhibition)
Chain of Fungal ACC2 (Q00955 whole entry): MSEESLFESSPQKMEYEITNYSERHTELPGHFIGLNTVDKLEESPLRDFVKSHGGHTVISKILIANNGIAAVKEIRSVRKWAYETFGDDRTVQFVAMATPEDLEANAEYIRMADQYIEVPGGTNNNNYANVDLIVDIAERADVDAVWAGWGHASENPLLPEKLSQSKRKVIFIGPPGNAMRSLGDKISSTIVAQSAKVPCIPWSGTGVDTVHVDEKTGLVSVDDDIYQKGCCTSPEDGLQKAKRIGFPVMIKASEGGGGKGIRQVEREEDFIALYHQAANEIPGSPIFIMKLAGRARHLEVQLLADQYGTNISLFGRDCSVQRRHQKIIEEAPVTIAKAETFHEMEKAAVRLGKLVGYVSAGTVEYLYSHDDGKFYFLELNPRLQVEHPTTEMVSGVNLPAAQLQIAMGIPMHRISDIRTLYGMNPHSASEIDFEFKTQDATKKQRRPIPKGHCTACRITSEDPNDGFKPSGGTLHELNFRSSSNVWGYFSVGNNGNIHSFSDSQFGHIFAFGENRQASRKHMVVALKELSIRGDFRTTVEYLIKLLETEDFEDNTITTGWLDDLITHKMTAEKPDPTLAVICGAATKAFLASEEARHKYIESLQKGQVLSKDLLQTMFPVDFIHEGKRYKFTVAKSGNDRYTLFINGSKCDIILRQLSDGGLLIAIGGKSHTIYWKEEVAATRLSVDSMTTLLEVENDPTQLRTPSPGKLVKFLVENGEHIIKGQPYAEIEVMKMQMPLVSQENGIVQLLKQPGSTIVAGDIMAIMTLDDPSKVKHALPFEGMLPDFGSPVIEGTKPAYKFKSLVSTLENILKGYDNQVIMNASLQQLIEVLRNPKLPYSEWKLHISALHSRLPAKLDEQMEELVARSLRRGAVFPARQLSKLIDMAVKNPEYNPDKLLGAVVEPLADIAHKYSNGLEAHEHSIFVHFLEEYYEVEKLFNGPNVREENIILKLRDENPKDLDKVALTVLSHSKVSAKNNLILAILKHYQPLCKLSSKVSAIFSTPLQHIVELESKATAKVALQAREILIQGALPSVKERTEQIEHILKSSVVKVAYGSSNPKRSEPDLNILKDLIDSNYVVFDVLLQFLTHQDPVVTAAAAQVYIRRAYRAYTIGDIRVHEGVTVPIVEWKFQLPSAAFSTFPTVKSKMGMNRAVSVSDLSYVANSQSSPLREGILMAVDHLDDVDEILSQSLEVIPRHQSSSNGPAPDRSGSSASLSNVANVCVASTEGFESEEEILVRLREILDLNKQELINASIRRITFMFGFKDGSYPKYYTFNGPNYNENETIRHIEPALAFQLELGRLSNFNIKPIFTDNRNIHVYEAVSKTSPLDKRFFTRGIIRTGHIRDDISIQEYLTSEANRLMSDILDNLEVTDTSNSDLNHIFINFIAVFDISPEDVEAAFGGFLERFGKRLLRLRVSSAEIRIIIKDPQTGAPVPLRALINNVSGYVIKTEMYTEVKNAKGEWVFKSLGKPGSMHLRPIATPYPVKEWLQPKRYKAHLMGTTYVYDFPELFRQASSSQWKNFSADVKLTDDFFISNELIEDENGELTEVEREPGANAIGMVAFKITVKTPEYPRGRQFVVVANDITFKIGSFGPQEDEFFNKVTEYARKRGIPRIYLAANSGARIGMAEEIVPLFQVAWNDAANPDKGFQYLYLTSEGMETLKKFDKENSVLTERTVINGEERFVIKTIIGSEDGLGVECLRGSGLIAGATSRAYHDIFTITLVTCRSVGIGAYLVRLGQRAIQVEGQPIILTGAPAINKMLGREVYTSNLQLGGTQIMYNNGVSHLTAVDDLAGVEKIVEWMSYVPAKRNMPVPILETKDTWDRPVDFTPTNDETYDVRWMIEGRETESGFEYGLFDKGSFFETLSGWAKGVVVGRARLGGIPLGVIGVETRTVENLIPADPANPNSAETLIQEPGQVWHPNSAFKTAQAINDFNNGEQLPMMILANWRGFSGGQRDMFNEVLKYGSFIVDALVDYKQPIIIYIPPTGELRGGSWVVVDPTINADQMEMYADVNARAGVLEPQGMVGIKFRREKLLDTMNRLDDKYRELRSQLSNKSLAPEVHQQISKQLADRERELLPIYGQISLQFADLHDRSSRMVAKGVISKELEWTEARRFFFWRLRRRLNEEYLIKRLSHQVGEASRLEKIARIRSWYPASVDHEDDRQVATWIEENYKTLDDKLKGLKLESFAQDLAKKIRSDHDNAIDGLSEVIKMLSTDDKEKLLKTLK

[5] = test system: Fusarium moniliforme (Fm); assay: Growth inhibition assay of fungal pathogens, Fm; assay type: cell-based; conditions: Fusarium verticillioides; 48 hours; read-out: Concentration at 90% Inhibition, Fm
Outline: as §3

[6] = test system: Collectotrichum graminicola (Cg); assay: Growth inhibition assay of fungal pathogens, Cg; assay type: cell-based; conditions: 48 hours; read-out: Concentration at 90% Inhibition, Cg
Outline: as §3

Diplodia maydis (Dm) = assay: Growth inhibition assay of fungal pathogens, Dm; assay type: cell-based; conditions: Stenocarpella maydis; 48 hours; read-out: Concentration at 90% Inhibition, Dm
Outline: as §3

Rhizoctonia solani (Rs) = assay: Growth inhibition assay of fungal pathogens, Rs; assay type: cell-based; conditions: 48 hours, read-out: Concentration at 90% Inhibition, Rs
Botrtyis cinerea (Bc) = assay: Growth inhibition assay of fungal pathogens, Bc; assay type: cell-based; conditions: 48 hours; read-out: Concentration at 90% Inhibition, Bc
Outline: as §3

[7] = compound concentration 10 ppm, foliar spray, evaluated 7 days after inoculation
[8] = strain 5280 ATCC MYA-3626, 35° C., read-out: MIC, A. fumigatus 5280 ATCC MYA-3626
[9] = strain 6781 ATCC MYA-4609, 35° C., read-out: MIC, A. fumigatus 6781 ATCC MYA-4609

Row | SMILES | MIC (Aspergillus fumigatus; [8]) [µg/mL] | MIC (Aspergillus fumigatus; [9]) [µg/mL] | IC50 (Human ACC2) [nM] | MIC (Candida tropicalis) [µg/mL] | MIC (Candida glabrata) [µg/mL] | MIC (C. albicans ATCC 90028) [µg/mL] | MIC [1] [µg/mL] | MIC (C. krusei ATCC 6258) [µg/mL] | IC90 [2] [µg/mL] | IC90 (Septoria tritici (St)) [µg/mL] | pest or weed control at 50 ppm [3] [%] | IC90 [4] [µg/mL] | IC50 (Fungal ACC2) [nM] | IC90 [5] [µg/mL] | IC90 [6] [µg/mL] | IC90 (Diplodia maydis (Dm)) [µg/mL] | IC90 (Rhizoctonia solani (Rs)) [µg/mL] | IC90 (Botrtyis cinerea (Bc)) [µg/mL] | Barley Powdery Mildew Control at 10 ppm [7]
1 | CCN1CCC(n2c(=O)c3c(C)c(-n4nccn4)sc3n(C[C@H](OC3CCOCC3)c3cc(F)ccc3OC)c2=O)C1=O (stereo partly drawn) [Compound I-11, 3-(1-ethyl-2-oxopyrrolidin-3-yl)-1-((R)-2-(5-fluoro-2-methoxyphenyl)-2-((tetrahydro-2H-pyran-4-yl)oxy)ethyl)-5-methyl-6-(2H-1,2,3-triazol-2-yl)thieno[2,3-d]pyrimidine-2,4(1H,3H)-dione] | 0.25 to 1 (≈ 0.408 to 1.63 µM) | 0.25 to 1 (≈ 0.408 to 1.63 µM) | 2 to 10 | 0.25 to 1 (≈ 0.408 to 1.63 µM) | > 4.1 |  |  |  |  |  |  |  |  |  |  |  |  |  | 
2 | COc1ccc(F)cc1[C@H](Cn1c(=O)n(C2CCN(C(C)C)C2=O)c(=O)c2c(C)c(-n3nccn3)sc21)OC1CCOCC1 (stereo partly drawn) [Compound I-12, 1-((R)-2-(5-fluoro-2-methoxyphenyl)-2-((tetrahydro-2H-pyran-4-yl)oxy)ethyl)-3-(1-isopropyl-2-oxopyrrolidin-3-yl)-5-methyl-6-(2H-1,2,3-triazol-2-yl)thieno[2,3-d]pyrimidine-2,4(1H,3H)-dione] | 0.25 to 1 (≈ 0.399 to 1.6 µM) | 0.25 to 1 (≈ 0.399 to 1.6 µM) | 2 to 10 | 0.25 to 1 (≈ 0.399 to 1.6 µM) | > 4.1 | 0.25 to 1 (≈ 0.399 to 1.6 µM) | 0.25 to 1 (≈ 0.399 to 1.6 µM) | 0.25 to 1 (≈ 0.399 to 1.6 µM) |  |  |  |  |  |  |  |  |  |  | 
3 | COCCO[C@@H](Cn1c(=O)n([C@@H]2CCN(C)C2=O)c(=O)c2c(C)c(-n3cccn3)sc21)c1cc(F)ccc1OC [Compound I-44, 1-((R)-2-(5-fluoro-2-methoxyphenyl)-2-(2-methoxy-ethoxy)ethyl)-5-methyl-3-((R)-1-methyl-2-oxopyrrolidin-3-yl)-6-(1H-pyrazol-1-yl)thieno[2,3-d]pyrimidine-2,4(1H,3H)-dione] |  |  | 10 to 100 |  |  | 2.1 to 4 (≈ 3.67 to 7 µM) | 2.1 to 4 (≈ 3.67 to 7 µM) | 2.1 to 4 (≈ 3.67 to 7 µM) | > 50 | > 50 | 70 to 84 | > 50 | 2 to 10 | 10 (≈ 17.5 µM) | > 50 | > 50 | > 50 | > 50 | D (provided a compound having <25% control of barley powdery mildew)
4 | COc1ccc(F)cc1[C@H](Cn1c(=O)n([C@@H]2CCCNC2=O)c(=O)c2c(C)c(-n3nccn3)sc21)OCCC#N [Compound I-111, 3-((R)-1-(5-fluoro-2-methoxyphenyl)-2-(5-methyl-2,4-dioxo-3-((R)-2-oxopiperidin-3-yl)-6-(2H-1,2,3-triazol-2-yl)-3,4-dihydrothieno[2,3-d]pyrimidin-1(2H)-yl)ethoxy)propanenitrile] |  |  | 2 to 10 |  |  | 2.1 to 4 (≈ 3.7 to 7.05 µM) | 2.1 to 4 (≈ 3.7 to 7.05 µM) | 2.1 to 4 (≈ 3.7 to 7.05 µM) | 10 (≈ 17.6 µM) | > 50 | 50 to 69 | > 50 | 0.7 to 2 | 2 (≈ 3.52 µM) | 10 (≈ 17.6 µM) | 10 (≈ 17.6 µM) | 2 (≈ 3.52 µM) | 2 (≈ 3.52 µM) | C (provided a compound having from 25 to 49% control of barley powdery mildew)
5 | COCCO[C@@H](Cn1c(=O)n([C@@H]2CCN(C)C2=O)c(=O)c2c(C)c(-n3nccn3)sc21)c1cc(F)ccc1OC [Compound I-28, 1-((R)-2-(5-fluoro-2-methoxyphenyl)-2-(2-methoxy-ethoxy)ethyl)-5-methyl-3-((R)-1-methyl-2-oxopyrrolidin-3-yl)-6-(2H-1,2,3-triazol-2-yl)thieno[2,3-d]pyrimidine-2,4(1H, 3H)-dione] |  |  | 10 to 100 |  |  | 2.1 to 4 (≈ 3.67 to 6.99 µM) | 2.1 to 4 (≈ 3.67 to 6.99 µM) | 2.1 to 4 (≈ 3.67 to 6.99 µM) | > 50 | > 50 | > 85 | > 50 | 2 to 10 | 2 (≈ 3.49 µM) | > 50 | > 50 | 10 (≈ 17.5 µM) | 2 (≈ 3.49 µM) | A (provided a compound having from 70% to 84% control of barley powdery mildew)
